Test results taken from EP1149074B1, “ACETYLENIC SULFONAMIDE THIOL TACE INHIBITORS” (Wyeth Holdings Corporation, priority 1999, dated 2000).

Key:
THP-1 cells = assay: Human monocytic THP-1 cell differentiation assay for soluble proteins (THP-1 soluble protein assay); assay type: cell-based; conditions: LPS-stimulated THP-1 cells; quantity, unit and concentration not given
Source text: Human Monocytic THP-1 Cell Differentiation Assay For Soluble Proteins (THP-1 Soluble Protein Assay)
Mitogenic stimulation of THP-1 cells cause differentiation into macrophage like cells with concomitant secretion of tumor necrosis factor (TNF-α) and TNF receptor (TNF-R p75/80 and TNF-R p55/60) and Interleukin-8 (IL-8), among other proteins. In addition, non-stimulated THP-1 cells shed both the p75/80 and the […] receptors over time. The release of membrane bound TNF-α and possibly TNF-R p75/80 and TNF-R p55/60, but not IL-8, is mediated by an enzyme called TNF-α converting enzyme or TACE.
THP-1 cells (from ATCC) are a human monocytic cell line which were obtained from the peripheral blood of a person with acute monocytic leukemia. They can be grown in culture and differentiated into macrophage like cells by stimulation with mitogens.
For the assay, THP-1 cells are seeded from an ATCC stock which was previously grown and frozen back at 5 x 10^6/ml/vial. […]
To perform an assay, the THP-1 cells are co-incubated in a 24 well plate with […] of a 24 mg/ml stock of Lipopolysacharide (LPS) (Calbiochem Lot# B13189) at 37°C in 5% CO2 at a concentration of 1.091 x 10^6 cells/ml (1.1 ml/well) for a total of 24 hours. […] Compounds can be evaluated for their effect on basal (non-stimulated) shedding of the receptors by replacing the LPS with […] of THP-1 media. […]
In addition, at the 24 hours timepoint, and the cells for each treatment group are collected by resuspension in 500 µl/well of THP-1 media and transferred into a FACS tube. […] The samples are run on a Becton Dickinson FaxCaliber FLOW cytometry machine and the amount of dye taken up by each cell is measured in the high red wavelength (FL3). […] The percent of live cells is calculated by the number of cells not stained with PI, divided by the total number of cells in the sample. The viability values calculated for the drug treated groups were compared to the viability value calculated for the vehicle treated mitogen stimulated group ("vehicle positive control") to determine the "percent change from control". […]

TACE = TACE (Homo sapiens, UniProt P78536); assay: TACE inhibition test procedure (fluorescent peptidyl substrate); assay type: biochemical
Protocol: Test Procedure for Measuring TACE Inhibition
Using 96-well black microtiter plates, each well receives a solution composed of 10 µL TACE (final concentration 1µg/mL), 70µL Tris buffer, pH 7.4 containing 10% glycerol (final concentration 10 mM), and 10 µL of test compound solution in DMSO (final concentration 1µM, DMSO concentration <1%) and incubated for 10 minutes at room temperature. The reaction is initiated by addition of a fluorescent peptidyl substrate (final concentration 100 µM) to each well and then shaking on a shaker for 5 sec.
The reaction is read (excitation 340 nm, emission 420 nm) for 10 min. and the increase in fluorescence over time is plotted as a linear line. The slope of the line is calculated and represents the reaction rate.
The linearity of the reaction rate is confirmed (r^2 >0.85). The mean (x±sem) of the control rate is calculated and compared for statistical significance (p<0.05) with drug-treated rates using Dunnett's multiple comparison test. Dose-response relationships can be generate using multiple doses of drug and IC50 values with 95% CI are estimated using linear regression.

TACE, sequence (P78536 215-824): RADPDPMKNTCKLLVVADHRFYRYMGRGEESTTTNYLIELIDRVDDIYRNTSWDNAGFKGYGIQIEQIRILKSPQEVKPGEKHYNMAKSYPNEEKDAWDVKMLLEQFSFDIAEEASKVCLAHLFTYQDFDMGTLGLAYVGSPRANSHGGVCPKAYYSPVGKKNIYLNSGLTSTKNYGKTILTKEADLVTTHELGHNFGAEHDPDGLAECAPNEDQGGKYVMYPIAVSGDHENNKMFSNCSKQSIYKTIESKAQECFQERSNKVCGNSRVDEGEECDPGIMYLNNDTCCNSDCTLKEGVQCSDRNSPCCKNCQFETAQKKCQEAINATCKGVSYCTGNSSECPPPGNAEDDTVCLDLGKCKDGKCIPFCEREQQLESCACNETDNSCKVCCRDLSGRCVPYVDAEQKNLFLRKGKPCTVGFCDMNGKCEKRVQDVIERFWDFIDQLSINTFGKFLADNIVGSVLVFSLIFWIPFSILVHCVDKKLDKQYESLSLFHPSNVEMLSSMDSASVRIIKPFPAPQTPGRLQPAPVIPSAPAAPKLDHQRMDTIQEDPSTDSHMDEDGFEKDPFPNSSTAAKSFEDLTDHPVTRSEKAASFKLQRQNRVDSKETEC

IC50 (TACE) [nM] | Compound | THP (THP-1 cells)
 | CC#CCOc1ccc(S(=O)(=O)N(C)[C@H](C)CS)cc1 [Example 8, 4-But-2-ynyloxy-N-((1R)-2-mercapto-1-methyl-ethyl)-N-methyl-benzenesulfonamide] | 3
362 | CC#CCOc1ccc(S(=O)(=O)N(CCN2CCOCC2)[C@H](C)CS)cc1 [Example 11, 4-(2-Butynyloxy)-N-[(1R)-1-methyl-2-sulfanylethyl]-N-[2-(4-morpholinyl)ethyl]benzenesulfonamide] | 11
263 | CC#CCOc1ccc(S(=O)(=O)N(CCN2CCOCC2)[C@@H](CS)C(N)=O)cc1 [Example 15, (2R)-2-{{[4-(2-Butynyloxy)phenyl]sulfonyl}[2-(4-morpholinyl)ethyl]amino}-3-sulfanylpropanamide] | 19
